Results on two compounds are retold here after ChEMBL document CHEMBL4402545, “Subtype Selective γ-Aminobutyric Acid Type A Receptor (GABAAR) Modulators Acting at the Benzodiazepine Binding Site: An Update” (J Med Chem, 2020).

Usually Ki stands for the dissociation constant of the complex between target and ligand, obtained from inhibition or displacement. The low end stands for higher affinity, the high end for lower affinity.

The test system of assay [1] is Rattus norvegicus. Nature of the assay: In vivo receptor occupancy at GABAA receptor in po dosed Sprague-Dawley rat assessed as plasma concentration causing 50% reduction in [3H]-flumazenil receptor labeling by scintillation counting method. It counts as functional.
Assay [2] deals with Homo sapiens. Nature of the assay: In vivo receptor occupancy GABAA receptor in human assessed as neocortical regions concentration causing reduction in [11C]flumazenil receptor labeling at 1.5 mg after 5 hrs by PET method relative to control. In kind it is functional.
Assay [3] addresses T1, Gamma-aminobutyric acid receptor subunit alpha-5 (Homo sapiens) (UniProt P31644).
T1 sequence (whole entry): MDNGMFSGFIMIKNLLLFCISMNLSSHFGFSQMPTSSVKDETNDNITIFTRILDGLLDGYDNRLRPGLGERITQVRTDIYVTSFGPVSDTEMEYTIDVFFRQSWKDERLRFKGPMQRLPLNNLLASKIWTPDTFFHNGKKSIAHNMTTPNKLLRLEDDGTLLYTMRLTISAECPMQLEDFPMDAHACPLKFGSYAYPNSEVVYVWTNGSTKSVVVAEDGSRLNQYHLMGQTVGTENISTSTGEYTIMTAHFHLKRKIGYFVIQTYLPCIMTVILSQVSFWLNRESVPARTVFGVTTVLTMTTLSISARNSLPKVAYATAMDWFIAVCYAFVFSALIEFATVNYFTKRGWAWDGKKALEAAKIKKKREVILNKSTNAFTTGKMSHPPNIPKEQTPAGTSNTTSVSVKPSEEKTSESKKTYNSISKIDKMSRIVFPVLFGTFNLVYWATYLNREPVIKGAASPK
Nature of the assay: Binding affinity to GABA-A alpha5 (unknown origin) assessed as increase in induced current relative to control.

Assay [4] addresses T2, Gamma-aminobutyric acid receptor subunit alpha-3 (Homo sapiens, UniProt P34903).
T2 sequence (P34903 whole entry): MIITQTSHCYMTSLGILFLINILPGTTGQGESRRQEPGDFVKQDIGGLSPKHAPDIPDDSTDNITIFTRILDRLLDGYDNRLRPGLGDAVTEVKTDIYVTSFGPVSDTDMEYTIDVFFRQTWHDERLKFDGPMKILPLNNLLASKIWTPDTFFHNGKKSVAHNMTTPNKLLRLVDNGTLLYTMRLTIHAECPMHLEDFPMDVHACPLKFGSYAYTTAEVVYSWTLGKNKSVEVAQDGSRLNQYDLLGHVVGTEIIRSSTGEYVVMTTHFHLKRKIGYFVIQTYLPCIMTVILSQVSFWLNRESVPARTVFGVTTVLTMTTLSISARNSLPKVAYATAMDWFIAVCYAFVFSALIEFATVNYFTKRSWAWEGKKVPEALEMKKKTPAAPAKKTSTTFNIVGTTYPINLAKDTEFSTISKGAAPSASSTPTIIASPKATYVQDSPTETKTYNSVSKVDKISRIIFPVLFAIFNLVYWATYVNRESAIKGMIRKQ
The experiment in a line: Binding affinity to GABA-A alpha3 (unknown origin).

The target in assay [5] is T3, Gamma-aminobutyric acid receptor subunit alpha-2 (Homo sapiens, UniProt P47869).
T3 sequence (P47869 whole entry): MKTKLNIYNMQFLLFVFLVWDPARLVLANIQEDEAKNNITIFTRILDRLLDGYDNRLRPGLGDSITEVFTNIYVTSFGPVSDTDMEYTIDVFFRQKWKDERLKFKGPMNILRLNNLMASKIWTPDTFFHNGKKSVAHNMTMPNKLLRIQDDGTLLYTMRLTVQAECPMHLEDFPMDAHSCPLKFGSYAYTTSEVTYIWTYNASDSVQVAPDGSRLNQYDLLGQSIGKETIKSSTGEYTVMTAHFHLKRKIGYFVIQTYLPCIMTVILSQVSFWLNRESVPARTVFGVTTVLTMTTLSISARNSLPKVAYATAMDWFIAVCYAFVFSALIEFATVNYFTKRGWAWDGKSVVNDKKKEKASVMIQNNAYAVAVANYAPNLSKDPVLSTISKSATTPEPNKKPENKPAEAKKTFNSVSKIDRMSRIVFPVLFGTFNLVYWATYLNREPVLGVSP
Nature of the assay: Binding affinity to GABA-A alpha2 (unknown origin).

Assay [6] deals with Homo sapiens. The experiment in a line: In vivo receptor occupancy at GABAA receptor in po dosed human assessed as plasma concentration causing 50% reduction in [11C]-flumazenil receptor labeling. It counts as functional.
Assay [7] addresses T4, Gamma-aminobutyric acid receptor subunit alpha-5 (Homo sapiens, UniProt P31644).
T4 sequence (P31644 whole entry): T1 sequence (whole entry)
The experiment in a line: Binding affinity to GABA-A alpha5 (unknown origin).

Assay [8] concerns Rattus norvegicus. Nature of the assay: In vivo receptor occupancy at GABAA receptor in po dosed Sprague-Dawley rat assessed as brain concentration causing 50% reduction in [3H]-flumazenil receptor labeling after 0.75 hrs by scintillation counting method. It counts as functional.
The target in assay [9] is T5, Gamma-aminobutyric acid receptor subunit alpha-1 (Homo sapiens) (UniProt P14867).
T5 sequence (whole entry): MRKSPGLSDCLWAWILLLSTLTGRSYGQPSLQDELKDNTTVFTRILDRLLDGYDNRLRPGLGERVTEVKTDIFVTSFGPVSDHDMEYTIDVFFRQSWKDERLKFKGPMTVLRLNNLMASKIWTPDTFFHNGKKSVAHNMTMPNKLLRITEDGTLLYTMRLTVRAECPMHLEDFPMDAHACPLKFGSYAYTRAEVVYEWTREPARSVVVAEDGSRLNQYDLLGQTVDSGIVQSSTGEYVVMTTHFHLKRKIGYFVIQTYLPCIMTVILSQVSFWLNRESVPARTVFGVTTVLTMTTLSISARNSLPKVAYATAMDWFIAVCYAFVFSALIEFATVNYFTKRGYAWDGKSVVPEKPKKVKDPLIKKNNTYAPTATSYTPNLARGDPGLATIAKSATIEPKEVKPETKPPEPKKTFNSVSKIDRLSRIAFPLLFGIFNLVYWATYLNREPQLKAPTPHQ
Nature of the assay: Binding affinity to GABA-A alpha1 (unknown origin) assessed as increase in induced current relative to control.

Assay [10] has as its target T6, Gamma-aminobutyric acid receptor subunit alpha-3 (Homo sapiens) (UniProt P34903).
T6 sequence (whole entry): T2 sequence (P34903 whole entry)
The experiment in a line: Binding affinity to GABA-A alpha3 (unknown origin) assessed as increase in induced current relative to control.

Assay [11] has as its target T7, Gamma-aminobutyric acid receptor subunit alpha-2 (Homo sapiens) (UniProt P47869).
T7 sequence (whole entry): T3 sequence (P47869 whole entry)
The experiment in a line: Binding affinity to GABA-A alpha2 (unknown origin) assessed as increase in induced current relative to control.

Assay [12] relates to Homo sapiens. The experiment in a line: In vivo receptor occupancy GABAA receptor in human assessed as neocortical regions concentration causing reduction in [11C]flumazenil receptor labeling at 1.5 mg after 24 hrs by PET method relative to control. In kind it is functional.
For assay [13], the target named is T8, Gamma-aminobutyric acid receptor subunit alpha-1 (Homo sapiens, UniProt P14867).
T8 sequence (P14867 whole entry): T5 sequence (whole entry)
The experiment in a line: Binding affinity to GABA-A alpha1 (unknown origin).

Assay [14] relates to Rattus norvegicus. Nature of the assay: In vivo receptor occupancy at GABAA receptor in po dosed Wistar rat brain assessed as brain concentration causing reduction in [3H]Flunitrazepam receptor labeling by scintillation counting method. It counts as functional.
The target in assay [15] is T9, GABA-A receptor; alpha-5/beta-3/gamma-2 (Homo sapiens, UniProt P18507+P28472+P31644).
T9 sequence (P18507 whole entry): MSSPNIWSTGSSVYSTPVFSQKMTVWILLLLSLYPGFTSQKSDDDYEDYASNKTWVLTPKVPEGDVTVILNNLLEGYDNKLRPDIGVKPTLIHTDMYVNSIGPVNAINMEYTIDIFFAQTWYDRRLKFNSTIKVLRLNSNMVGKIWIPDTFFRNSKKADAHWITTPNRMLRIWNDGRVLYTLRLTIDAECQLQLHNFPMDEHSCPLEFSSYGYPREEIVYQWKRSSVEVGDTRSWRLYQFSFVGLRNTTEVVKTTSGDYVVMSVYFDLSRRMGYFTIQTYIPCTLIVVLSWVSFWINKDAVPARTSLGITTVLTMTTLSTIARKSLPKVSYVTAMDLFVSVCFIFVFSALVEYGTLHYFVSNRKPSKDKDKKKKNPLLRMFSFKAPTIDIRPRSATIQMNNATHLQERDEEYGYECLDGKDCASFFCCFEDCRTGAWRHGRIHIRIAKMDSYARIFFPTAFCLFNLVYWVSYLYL
T9 sequence (P28472 whole entry): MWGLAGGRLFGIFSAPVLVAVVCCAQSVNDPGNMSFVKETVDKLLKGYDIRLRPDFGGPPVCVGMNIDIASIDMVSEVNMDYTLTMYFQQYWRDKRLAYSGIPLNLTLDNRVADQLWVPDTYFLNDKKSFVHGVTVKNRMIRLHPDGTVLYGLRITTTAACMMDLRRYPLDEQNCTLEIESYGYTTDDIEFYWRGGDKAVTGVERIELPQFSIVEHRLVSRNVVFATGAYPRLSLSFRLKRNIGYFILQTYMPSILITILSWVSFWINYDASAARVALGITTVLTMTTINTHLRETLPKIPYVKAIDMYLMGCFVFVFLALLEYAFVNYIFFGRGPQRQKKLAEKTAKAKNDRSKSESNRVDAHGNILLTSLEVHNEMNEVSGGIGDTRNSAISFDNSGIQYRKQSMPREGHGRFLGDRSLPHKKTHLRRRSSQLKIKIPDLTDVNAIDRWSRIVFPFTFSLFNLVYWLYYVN
T9 sequence (P31644 whole entry): T1 sequence (whole entry)
Nature of the assay: Displacement of [3H]-Ro15-1788 from human GABAA alpha5beta3gamma2 expressed in HEK293 cell membranes incubated for 40 or 90 mins by liquid scintillation counting method.

Assay [16] addresses T10, GABA-A receptor; alpha-1/beta-3/gamma-2 (Homo sapiens, UniProt P14867+P18507+P28472).
T10 sequence (P14867 whole entry): T5 sequence (whole entry)
T10 sequence (P18507 whole entry): T9 sequence (P18507 whole entry)
T10 sequence (P28472 whole entry): T9 sequence (P28472 whole entry)
The experiment in a line: Displacement of [3H]-Ro15-1788 from human GABAA alpha1beta3gamma2 expressed in HEK293 cell membranes incubated for 40 or 90 mins by liquid scintillation counting method.

Assay [17] addresses T11, GABA-A receptor; alpha-3/beta-3/gamma-2 (Homo sapiens, UniProt P18507+P28472+P34903).
T11 sequence (P18507 whole entry): T9 sequence (P18507 whole entry)
T11 sequence (P28472 whole entry): T9 sequence (P28472 whole entry)
T11 sequence (P34903 whole entry): T2 sequence (P34903 whole entry)
Nature of the assay: Displacement of [3H]-Ro15-1788 from human GABAA alpha3beta3gamma2 expressed in HEK293 cell membranes incubated for 40 or 90 mins by liquid scintillation counting method.

Assay [18] in a line: Displacement of [3H]-Ro15-1788 from human GABAA alpha2beta3gamma2 expressed in HEK293 cell membranes incubated for 40 or 90 mins by liquid scintillation counting method. Background: In a radioligand displacement assay an active substance lowers the binding of a labelled ligand.

With `CC(C)(O)c1cnn2c(-c3ccc(F)c(-c4c(F)cccc4C#N)c3)cnc2n1`, the Occ50 with Rattus norvegicus [1] was found to be 19 ng/mL; in the assay with Homo sapiens [6], 5.8 ng/mL; in the assay with Rattus norvegicus [8], 0.09 mg/kg. Also, the Occ came out at 52% in the assay on Homo sapiens [2] and 46% in the assay with Homo sapiens [12]. The fold change (FC) in assay [3] stood at 0.37; in assay [9], 0.03; in [10], 0.5; in assay [11], 0.38. Also, the inhibition constant (Ki) in [4] was determined as 1.8 nM; in assay [5], 2 nM; in [7], 1.1 nM; in assay [13] it was 0.73 nM.

Take `CC(C)(O)c1ccc2c(c1)ncn2-c1cccc(-c2ccccc2C#N)c1`: the Occ50 in the assay on Rattus norvegicus [14] was found to be 0.69 mg/kg. The fold change (FC) in assay [3] is 0.78; in [9], 0.08; in assay [10], 0.52; in [11], 0.26. For the same compound, the Ki amounted to 0.12 nM in assay [15], 0.41 nM in assay [16], 0.5 nM in [17] and 0.84 nM in assay [18].
